Assay [1] has as its target baculovirus-expressed ALK (Homo sapiens, UniProt Q9UM73). In words: ALK kinase inhibition, TRF/ELISA. The format is biochemical. The settings on record: read-out: ALK Potency. How it is done:
Briefly, each 96-well plate was coated with 100 μL/well of 10 μg/mL substrate (GST-PLC-γ) in Tris-buffered saline (TBS). […] The reaction was initiated by adding enzyme (30 ng/mL ALK) and was allowed to proceed at 37° C. for 15 minutes. Detection of the phosphorylated product was performed by adding 100 μL/well of Eu-N1 labeled PT66 antibody (Perkin Elmer #AD0041). […] Data analysis was performed using ActivityBase (IDBS, Guilford, UK). IC50 values were calculated by plotting percent inhibition versus log10 of the concentration of compound and fitting to the nonlinear regression sigmoidal dose-response (variable slope) equation in XLFit (IDBS, Guilford, UK).
(ELISA stands for enzyme-linked immunosorbent assay.)

Assay [2] addresses baculovirus-expressed JAK2 kinase (Homo sapiens, UniProt O60674). In words: biochemical. The settings on record: 0.2 μM ATP; read-out: JAK2 Potency. The protocol: Compounds were tested for their ability to inhibit the kinase activity of baculovirus-expressed JAK2 kinase using the time-resolved fluorescence (TRF) detection system. […] The plates were coated with 100 μL/well of 10 μg/mL Neutravidin (Pierce #31000, Rockford, Ill.) in TBS at 37° C. for 2 h, followed by 100 μL/well of 1 μg/mL 15-mer peptide substrate (biotinyl-amino-hexanoyl-[…]-amide, Infinity Biotech Research and Resource, Aston, Pa.) at 37° C. for 1 h. […] Enzyme (15 ng/mL JAK2) was added and the reaction was allowed to proceed at room temperature for 20 min. […] Inhibition data were analyzed using ActivityBase (IDBS, Guilford, UK). IC50 values were calculated by plotting percent inhibition versus log10 of the concentration of compound and fitting to the nonlinear regression sigmoidal dose-response (variable slope) equation in XLFit (IDBS, Guilford, UK).

Counter-ions that a name gives are not always drawn. Like-named read-outs stand apart in the source and are kept apart here.

Chain of baculovirus-expressed JAK2 kinase (O60674 whole entry): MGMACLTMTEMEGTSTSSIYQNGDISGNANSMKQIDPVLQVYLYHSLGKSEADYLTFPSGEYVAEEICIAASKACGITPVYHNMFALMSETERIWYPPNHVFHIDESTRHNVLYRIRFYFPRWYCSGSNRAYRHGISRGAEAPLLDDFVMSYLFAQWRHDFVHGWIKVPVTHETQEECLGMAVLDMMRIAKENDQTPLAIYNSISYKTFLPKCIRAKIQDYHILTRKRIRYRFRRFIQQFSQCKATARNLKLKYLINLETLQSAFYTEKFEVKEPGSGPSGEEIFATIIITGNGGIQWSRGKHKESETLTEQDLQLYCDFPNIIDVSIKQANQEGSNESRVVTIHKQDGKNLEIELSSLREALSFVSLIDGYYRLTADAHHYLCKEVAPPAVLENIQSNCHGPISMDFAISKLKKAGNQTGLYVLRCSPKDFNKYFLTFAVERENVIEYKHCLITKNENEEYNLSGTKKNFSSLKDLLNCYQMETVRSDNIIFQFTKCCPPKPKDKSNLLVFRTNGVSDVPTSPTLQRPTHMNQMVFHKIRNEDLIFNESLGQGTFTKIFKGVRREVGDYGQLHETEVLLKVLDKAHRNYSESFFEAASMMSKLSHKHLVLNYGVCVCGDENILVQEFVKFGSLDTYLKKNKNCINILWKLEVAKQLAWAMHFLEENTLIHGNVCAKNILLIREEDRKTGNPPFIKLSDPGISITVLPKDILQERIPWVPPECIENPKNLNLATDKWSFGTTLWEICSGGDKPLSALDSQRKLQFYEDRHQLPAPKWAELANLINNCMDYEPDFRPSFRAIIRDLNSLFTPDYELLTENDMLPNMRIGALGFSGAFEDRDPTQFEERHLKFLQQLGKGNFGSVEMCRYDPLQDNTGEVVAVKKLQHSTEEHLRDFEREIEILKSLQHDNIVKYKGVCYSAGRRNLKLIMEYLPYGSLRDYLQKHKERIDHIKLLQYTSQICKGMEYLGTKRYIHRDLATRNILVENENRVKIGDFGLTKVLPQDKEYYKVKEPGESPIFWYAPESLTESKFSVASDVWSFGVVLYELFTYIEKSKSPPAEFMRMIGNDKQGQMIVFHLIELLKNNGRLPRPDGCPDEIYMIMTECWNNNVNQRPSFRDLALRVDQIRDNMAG
Chain of baculovirus-expressed ALK (Q9UM73 19-1620): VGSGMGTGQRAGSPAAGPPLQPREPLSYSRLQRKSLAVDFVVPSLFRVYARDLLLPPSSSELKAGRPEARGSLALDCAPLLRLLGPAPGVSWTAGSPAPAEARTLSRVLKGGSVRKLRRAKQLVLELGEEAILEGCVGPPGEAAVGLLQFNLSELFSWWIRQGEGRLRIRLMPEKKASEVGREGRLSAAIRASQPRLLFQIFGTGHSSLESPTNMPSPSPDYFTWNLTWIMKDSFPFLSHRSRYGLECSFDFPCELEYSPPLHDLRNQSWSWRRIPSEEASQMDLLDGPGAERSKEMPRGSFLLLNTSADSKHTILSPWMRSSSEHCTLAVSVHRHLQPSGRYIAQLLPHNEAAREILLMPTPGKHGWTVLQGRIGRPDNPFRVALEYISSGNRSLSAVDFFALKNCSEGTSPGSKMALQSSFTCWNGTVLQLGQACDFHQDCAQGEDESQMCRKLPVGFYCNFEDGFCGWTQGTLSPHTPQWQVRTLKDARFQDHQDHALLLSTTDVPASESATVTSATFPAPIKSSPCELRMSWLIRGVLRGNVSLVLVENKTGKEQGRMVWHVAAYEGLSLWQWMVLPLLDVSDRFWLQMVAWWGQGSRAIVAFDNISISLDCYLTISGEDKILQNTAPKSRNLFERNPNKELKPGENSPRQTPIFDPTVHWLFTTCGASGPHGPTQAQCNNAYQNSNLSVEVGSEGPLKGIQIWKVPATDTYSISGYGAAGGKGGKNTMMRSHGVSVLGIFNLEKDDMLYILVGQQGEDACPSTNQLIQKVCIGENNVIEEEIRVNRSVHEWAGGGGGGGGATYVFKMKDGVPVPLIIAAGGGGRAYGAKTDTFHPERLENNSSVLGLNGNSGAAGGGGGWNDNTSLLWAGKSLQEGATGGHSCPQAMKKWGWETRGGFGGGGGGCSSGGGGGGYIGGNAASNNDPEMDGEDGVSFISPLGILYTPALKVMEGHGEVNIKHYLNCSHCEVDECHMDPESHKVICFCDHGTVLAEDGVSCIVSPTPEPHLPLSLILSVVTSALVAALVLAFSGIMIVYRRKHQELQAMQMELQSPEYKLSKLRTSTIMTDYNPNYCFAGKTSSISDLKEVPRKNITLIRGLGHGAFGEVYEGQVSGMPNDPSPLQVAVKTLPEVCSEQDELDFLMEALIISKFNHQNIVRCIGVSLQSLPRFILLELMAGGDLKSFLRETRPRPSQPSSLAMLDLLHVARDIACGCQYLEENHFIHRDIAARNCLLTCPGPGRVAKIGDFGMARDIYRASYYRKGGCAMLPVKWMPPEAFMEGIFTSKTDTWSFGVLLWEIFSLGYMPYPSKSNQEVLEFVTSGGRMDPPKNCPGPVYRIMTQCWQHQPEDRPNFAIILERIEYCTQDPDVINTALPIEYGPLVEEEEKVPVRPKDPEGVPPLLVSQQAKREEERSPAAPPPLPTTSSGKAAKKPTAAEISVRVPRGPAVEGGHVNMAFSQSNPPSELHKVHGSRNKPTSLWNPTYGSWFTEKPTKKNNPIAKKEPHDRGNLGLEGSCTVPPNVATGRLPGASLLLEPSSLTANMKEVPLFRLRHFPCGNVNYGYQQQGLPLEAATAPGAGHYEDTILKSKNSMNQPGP

For the compound `CN(C)CCOc1cccc(-c2nc3c(N[C@H]4[C@@H](C(N)=O)[C@@H]5C=C[C@H]4C5)c(Cl)cnc3[nH]2)c1` [Compound CCXLVII, (1S,2S,3R,4R)-3-(6-chloro-2-(3-(2-(dimethylamino)ethoxy)phenyl)-3H-imidazo[4,5-b]234yridine-7-ylamino)pyridin[2.2.1]hept-5-ene-2-carboxamide], the IC50 in assay [1] and in assay [2] was under 0.1 µM throughout.

On to `CNC(=O)[C@@H]1[C@H](Nc2c(Cl)cnc3[nH]c(-c4ccc(N5CCOCC5)cc4)nc23)[C@H]2C=C[C@@H]1C2` [Compound CLXXVIII, (1S,2S,3R,4R)-3-(6-chloro-2-(4-morpholinophenyl)-3H-imidazo[4,5-b]pyridin-7-ylamino)-N-methylbicyclo[2.2.1]hept-5-ene-2-carboxamide], for which the IC50 in assay [1] and in assay [2] was under 0.1 µM in each case.

Turning to `NC(=O)[C@@H]1[C@H](Nc2c(Br)cnc3[nH]c(-c4ccc(N5CCOCC5)c(Cl)c4)nc23)[C@H]2C=C[C@@H]1C2` [Compound CXXXV, (1S,2S,3R,4R)-3-[6-Bromo-2-(3-chloro-4-morpholin-4-yl-phenyl)-3H-imidazo[4,5-b]pyridin-7-ylamino]-bicyclo[2.2.1]hept-5-ene-2-carboxylic acid amide], the IC50 in assay [1] is 0.1 to 1 µM; in assay [2], under 0.1 µM.

Consider `COc1cc(N2CCOCC2)ccc1-c1nc2c(NC34CCC(C)(C(O)C3)C4(C)C)c(Cl)cnc2[nH]1` (stereo not drawn) [Compound CCIII, 4-(6-chloro-2-(2-methoxy-4-morpholinophenyl)-3H-imidazo[4,5-b]pyridin-7-ylamino)-1,7,7-trimethylbicyclo[2.2.1]heptan-2-ol], for which the IC50 in assay [1] and in assay [2] was 0.1 to 1 µM in each case.

For the compound `N#Cc1ccc(-c2nc3c(N[C@H]4[C@@H](C(N)=O)[C@@H]5C=C[C@H]4C5)c(Cl)cnc3[nH]2)cc1` [Compound CXLV, (1S,2S,3R,4R)-3-[6-Chloro-2-(4-cyano-phenyl)-3H-imidazo[4,5-b]pyridin-7-ylamino]-bicyclo[2.2.1]hept-5-ene-2-carboxylic acid amide], the IC50 in assay [1] was 0.1 to 1 µM; in assay [2] it was under 0.1 µM.

Consider `COc1ccccc1Nc1nc2c(N[C@H]3[C@@H](C(N)=O)[C@@H]4C=C[C@H]3C4)c(Cl)cnc2[nH]1` [Compound LXVIII, (1S,2S,3R,4R)-3-[6-Chloro-2-(2-methoxy-phenylamino)-3H-imidazo[4,5-b]pyridine-7-ylamino]-bicyclo[2.2.1]hept-5-ene-2-carboxylic acid amide], for which the values for the IC50 in assay [1] and in assay [2] were 0.1 to 1 µM and under 0.1 µM, respectively.

As for `Cn1cc(-c2nc3c(NC45CCC(C)(C(=O)C4)C5(C)C)c(Cl)cnc3[nH]2)cn1` (stereo not drawn) [Compound CXCIX, 4-(6-chloro-2-(1-methyl-1H-pyrazol-4-yl)-3H-imidazo[4,5-b]pyridin-7-ylamino)-1,7,7-trimethylbicyclo[2.2.1]heptan-2-one], the results for the IC50 in assay [1] and in assay [2] were 1 to 10 µM and under 0.1 µM, respectively.

Consider `CN(C)c1nc(Cl)c(-c2nc3c(N[C@H]4[C@@H](C(N)=O)[C@@H]5C=C[C@H]4C5)c(Br)cnc3[nH]2)s1` [Compound CLV, (1S,2S,3R,4R)-3-[6-Bromo-2-(4-chloro-2-dimethylamino-thiazol-5-yl)-3H-imidazo[4,5-b]pyridin-7-ylamino]-bicyclo[2.2.1]hept-5-ene-2-carboxylic acid amide], for which the IC50 in assay [1] and in assay [2] was under 0.1 µM each time.

Regarding `N#Cc1cccc(-c2nc3c(N[C@H]4[C@@H](C(N)=O)[C@@H]5C=C[C@H]4C5)c(Cl)cnc3[nH]2)c1` [Compound CXLIV, (1S,2S,3R,4R)-3-[6-Chloro-2-(3-cyano-phenyl)-3H-imidazo[4,5-b]pyridin-7-ylamino]-bicyclo[2.2.1]hept-5-ene-2-carboxylic acid amide], the IC50 in assay [1] is 0.1 to 1 µM; in assay [2], under 0.1 µM.

In the case of `CC12CCC(Nc3c(Cl)cnc4[nH]c(-c5ccc(N6CCOCC6)cc5)nc34)(CC1O)C2(C)C` (stereo not drawn) [Compound CCI, 4-(6-chloro-2-(4-morpholinophenyl)-3H-imidazo[4,5-b]pyridin-7-ylamino)-1,7,7-trimethylbicyclo[2.2.1]heptan-2-ol], the IC50 in assay [1] was over 10 µM; in assay [2], under 0.1 µM.

With `COc1cc(N2CCOCC2)ccc1-c1nc2c(N[C@H]3[C@@H](C(N)=O)[C@@H]4CC[C@H]3O4)c(Cl)cnc2[nH]1` [Compound CCVI, (1S,2R,3S,4R)-3-(6-chloro-2-(2-methoxy-4-morpholinophenyl)-3H-imidazo[4,5-b]pyridin-7-ylamino)-7-oxabicyclo[2.2.1]heptane-2-carboxamide], the IC50 was 0.1 to 1 µM in assay [1] and 1 to 10 µM in assay [2].

As to `NC(=O)[C@@H]1[C@H](Nc2c(Cl)cnc3[nH]c(C4CCCNC4)nc23)[C@H]2C=C[C@@H]1C2` (single isomer, unassigned) [XIV], the IC50 in assay [1] (1 μM ATP (Km level)) and in assay [2] was over 10 µM throughout.

Consider `CN1CCN(c2nc(Cl)c(-c3nc4c(N[C@H]5[C@@H](C(=O)N(C)C)[C@@H]6C=C[C@H]5C6)c(Cl)cnc4[nH]3)s2)CC1` [Compound CCLXIV, (1S,2S,3R,4R)-3-((6-chloro-2-(4-chloro-2-(4-methylpiperazin-1-yl)thiazol-5-yl)-3H-imidazo[4,5-b]pyridin-7-yl)amino)-N,N-dimethylbicyclo[2.2.1]hept-5-ene-2-carboxamide], for which the IC50 in assay [1] and in assay [2] was under 0.1 µM in each case.

For `CCNC(=O)N1CCC(n2cc(-c3nc4c(N[C@H]5[C@@H](C(N)=O)[C@@H]6C=C[C@H]5C6)c(Cl)cnc4[nH]3)cn2)CC1` [Compound LXII, 4-{4-[7-((1R,2R,3S,4S)-3-Carbamoyl-bicyclo[2.2.1]hept-5-ene-2-ylamino)-6-chloro-3H-imidazo[4,5-b]pyridine-2-yl]-pyrazol-1-yl)-piperidine-1-carboxylic acid ethylamide], the IC50 in assay [1] and in assay [2] was under 0.1 µM each time.

For `NC(=O)[C@@H]1[C@H](Nc2c(Br)cnc3[nH]c(-c4cccc(F)c4)nc23)[C@H]2C=C[C@@H]1C2` [Compound CXXXII, (1S,2S,3R,4R)-3-[6-Bromo-2-(3-fluoro-phenyl)-3H-imidazo[4,5-b]pyridin-7-ylamino]-bicyclo[2.2.1]hept-5-ene-2-carboxylic acid amide], the IC50 in assay [1] is 0.1 to 1 µM; in assay [2], under 0.1 µM.

In the case of `CN1CCN(C(=O)c2cccc(-c3nc4c(N[C@H]5[C@@H](C(N)=O)[C@@H]6C=C[C@H]5C6)c(Cl)cnc4[nH]3)c2)CC1` [Compound CCXXI, (1S,2S,3R,4R)-3-(6-chloro-2-(3-(4-methylpiperazine-1-carbonyl)phenyl)-3H-imidazo[4,5-b]pyridin-7-ylamino)bicyclo[2.2.1]hept-5-ene-2-carboxamide], the values for the IC50 in assay [1] and in assay [2] were 0.1 to 1 µM and under 0.1 µM, respectively.

With `NC(=O)[C@@H]1[C@H](Nc2c(Cl)cnc3[nH]c(-c4cccc(Cl)c4)nc23)[C@H]2C=C[C@@H]1C2` [Compound CXL, (1S,2S,3R,4R)-3-[6-Chloro-2-(3-chloro-phenyl)-3H-imidazo[4,5-b]pyridin-7-ylamino]-bicyclo[2.2.1]hept-5-ene-2-carboxylic acid amide], the values for the IC50 in assay [1] and in assay [2] were 0.1 to 1 µM and under 0.1 µM, respectively.

`NC(=O)[C@@H]1[C@H](Nc2c(Cl)cnc3[nH]c(-c4cccc(CN5CCOCC5)c4)nc23)[C@H]2C=C[C@@H]1C2` [Compound XVI, (1S,2S,3R,4R)-3-[6-Chloro-2-(3-morpholin-4-ylmethyl-phenyl)-3H-imidazo[4,5-b]pyridin-7-ylamino]-bicyclo[2.2.1]hept-5-ene-2-carboxylic acid amide trifluoroacetic acid salt]: the IC50 in assay [1] and in assay [2] was under 0.1 µM each time.

`COc1cc(CN2CCN(C)CC2)ccc1-c1nc2c(N[C@@H]3CCCC[C@H]3NS(C)(=O)=O)c(Cl)cnc2[nH]1` [Compound LXXI, N-((1R,2R)-2-{6-Chloro-2-[2-methoxy-4-(4-methyl-piperazin-1-ylmethyl)-phenyl]-3H-imidazo[4,5-b]pyridine-7-ylamino}-cyclohexyl)-methanesulfonamide]: the values for the IC50 in assay [1] and in assay [2] were under 0.1 µM and 1 to 10 µM, respectively.

For `NC(=O)[C@@H]1[C@H](Nc2c(Cl)cnc3[nH]c(-c4sc(N5CCCC5)nc4Cl)nc23)[C@H]2C=C[C@@H]1C2` [Compound CLXVI, (1S,2S,3R,4R)-3-[6-Chloro-2-(4-chloro-2-pyrrolidin-1-yl-thiazol-5-yl)-3H-imidazo[4,5-b]pyridin-7-ylamino]-bicyclo[2.2.1]hept-5-ene-2-carboxylic acid amide], the IC50 in assay [1] and in assay [2] was under 0.1 µM throughout.

For the compound `NC(=O)COc1ccc(-c2nc3c(N[C@H]4[C@@H](C(N)=O)[C@@H]5C=C[C@H]4C5)c(Cl)cnc3[nH]2)cc1` [Compound CCXL, (1S,2S,3R,4R)-3-(2-(4-(2-amino-2-oxoethoxy)phenyl)-6-chloro-3H-imidazo[4,5-b]pyridin-7-ylamino)bicyclo[2.2.1]hept-5-ene-2-carboxamide], the IC50 in assay [1] is 0.1 to 1 µM; in assay [2] it was under 0.1 µM.

Source of the values: patent publication US9238656B2, “Imidazo[4,5-b]pyridine derivatives as ALK and JAK modulators for the treatment of proliferative disorders” (priority 2012, dated 2016).
